Laboratory results published in US20150291625A1 (PFIZER INC., priority 2012, published 2015).
Several values for one entry are separate records, joined by “and”; a condition that tells them apart may be missing. Identical values can stand only once. Counter-ions that a name gives are not always drawn.

Assays:
D1 [1] = target: T1, D1 (Homo sapiens, UniProt P21728); test: D1 cAMP HTRF assay (HEK293T/hD1#1 stable cell line); assay type: cell-based; parameters: expressed in transfected cells
In short: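 Cells from a stable human D1 HEK293T line in PBS/0.5 μM IBMX were incubated with compound for 30 min at room temperature, and cAMP was then detected by competitive HTRF (1 h, room temperature). A cAMP standard curve converted ratios to cAMP, giving ratio-based and cAMP-based EC50 values.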

D1 [2] = target: T1, D1; test: Human D1 receptor binding assay ([3H]-SCH23390 competition); details: Human D1 Receptor Binding, Ki (nM), Geometric mean of 2-4 determinations, a: >=5 determinations, d: single determination

T1 sequence (P21728 whole entry): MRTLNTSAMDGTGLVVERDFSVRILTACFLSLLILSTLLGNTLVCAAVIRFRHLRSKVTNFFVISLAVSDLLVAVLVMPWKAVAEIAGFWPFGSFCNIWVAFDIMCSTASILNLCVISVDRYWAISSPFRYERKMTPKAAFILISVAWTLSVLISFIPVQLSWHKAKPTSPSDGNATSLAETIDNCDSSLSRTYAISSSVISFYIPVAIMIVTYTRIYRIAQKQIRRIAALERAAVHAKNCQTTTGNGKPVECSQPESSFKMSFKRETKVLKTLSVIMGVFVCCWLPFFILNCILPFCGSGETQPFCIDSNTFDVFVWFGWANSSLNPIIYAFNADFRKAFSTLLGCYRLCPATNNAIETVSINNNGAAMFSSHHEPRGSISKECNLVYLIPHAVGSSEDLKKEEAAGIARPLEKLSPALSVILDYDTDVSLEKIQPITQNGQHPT

| Compound | EC50 (D1 [1]) | Ki (D1 [2]) [nM] |
| --- | --- | --- |
| Cc1ncnc(C)c1-c1ccc(Oc2nccc3occc23)cc1O [Example 72, 2-(4,6-dimethylpyrimidin-5-yl)-5-(furo[3,2-c]pyridin-4-yloxy)phenol] | 989 nM | 91.4 |
| Cc1ncccc1-c1ccc(Oc2nccc3occc23)cc1OCCCN(C)C [Example 73, 3-[5-(furo[3,2-c]pyridin-4-yloxy)-2-(2-methylpyridin-3-yl)phenoxy]-N,N-dimethylpropan-1-amine, formate salt] | 748 nM and 966 nM | 37.7 |
| Cc1cc(Oc2nccc3occc23)ccc1-c1c(C)nc(N)nc1C [Example 75, 5-[4-(furo[3,2-c]pyridin-4-yloxy)-2-methylphenyl]-4,6-dimethylpyrimidin-2-amine] | 364 nM | 21.6 |
| COc1ncnc(C)c1-c1ccc(Oc2nccc3occc23)cc1F [Example 76, 4-[3-fluoro-4-(4-methoxy-6-methylpyrimidin-5-yl)phenoxy]furo[3,2-c]pyridine] | 903 nM and 2170 nM | 139 |
| Cc1ncnc(C)c1-c1ccc(Oc2nccc3occc23)cc1 [Example 77, 4-[4-(4,6-dimethylpyrimidin-5-yl)phenoxy]furo[3,2-c]pyridine] | 200 nM and 674 nM | 45.6 |
| CCc1noc(COc2cc(Oc3nccc4occc34)ccc2-c2cccnc2C)n1 [Example 78, 4-{3-[(3-ethyl-1,2,4-oxadiazol-5-yl)methoxy]-4-(2-methylpyridin-3-yl)phenoxy}furo[3,2-c]pyridine] | 885 nM and 1230 nM | 48.3 |
| Cc1nc(O)nc(C)c1-c1ccc(Oc2nccc3occc23)cc1 [Example 79, 5-[4-(furo[3,2-c]pyridin-4-yloxy)phenyl]-4,6-dimethylpyrimidin-2-ol] | 2550 nM and 1680 nM | 140 |
| Cc1cc(Oc2nccc3occc23)ccc1-c1c(C)ncc2nc(C(F)(F)F)cn12 [Example 80, 5-[4-(furo[3,2-c]pyridin-4-yloxy)-2-methylphenyl]-6-methyl-2-(trifluoromethyl)imidazo[1,2-a]pyrazine] | 1200 nM and 987 nM | 6.13 |
| CNc1ncnc(C)c1-c1ccc(Oc2nccc3occc23)cc1C [Example 81, 5-[4-(furo[3,2-c]pyridin-4-yloxy)-2-methylphenyl]-N,6-dimethylpyrimidin-4-amine] | 1770 nM | 270 |
| Cc1cc(Oc2nccc3occc23)ccc1-c1c(C)nc(N)nc1C#N [Example 84, 2-amino-5-[4-(furo[3,2-c]pyridin-4-yloxy)-2-methylphenyl]-6-methylpyrimidine-4-carbonitrile] | 360 nM | 116 |
| Cc1cc(Oc2nccc3occc23)ccc1-c1c(C)nc2cnccn12 [Example 85, 3-[4-(furo[3,2-c]pyridin-4-yloxy)-2-methylphenyl]-2-methylimidazo[1,2-a]pyrazine] | 1120 nM and 4880 nM | 75.3 |
| Cc1cc(Oc2nccc3occc23)ccc1-c1cc(N)cnc1C [Example 86, 5-[4-(furo[3,2-c]pyridin-4-yloxy)-2-methylphenyl]-6-methylpyridin-3-amine] | 833 nM and 4870 nM | 113 |
| Cc1cc(Oc2nccc3occc23)ccc1-c1c(C)ncnc1N(C)C [Example 87, 5-[4-(furo[3,2-c]pyridin-4-yloxy)-2-methylphenyl]-N,N,6-trimethylpyrimidin-4-amine] | 600 nM and 482 nM | 22.5 |
| Cc1cc(Oc2nccc3occc23)ccc1-c1cccnc1C1CC1 [Example 88, 4-[4-(2-cyclopropylpyridin-3-yl)-3-methylphenoxy]furo[3,2-c]pyridine] | 710 nM and 1520 nM | 117 |
| Cc1cc(Oc2nccc3occc23)ccc1-c1c(C)cccc1C [Example 89, 4-[(2,2′,6′-trimethylbiphenyl-4-yl)oxy]furo[3,2-c]pyridine, trifluoroacetate salt] | 1860 nM | 123 |
| Cc1nc(N)ccc1-c1ccc(Oc2nccc3occc23)cc1Cl [Example 90, 5-[2-chloro-4-(furo[3,2-c]pyridin-4-yloxy)phenyl]-6-methylpyridin-2-amine] | 448 nM | 25.4 |
| Cc1ncc(N)nc1-c1ccc(Oc2nccc3occc23)cc1C(F)(F)F [Example 91, 6-[4-(furo[3,2-c]pyridin-4-yloxy)-2-(trifluoromethyl)phenyl]-5-methylpyrazin-2-amine] | 580 nM | 61.2 |
| Cc1ncccc1-c1ccc(Oc2nccc3occc23)cc1F [Example 92, 4-[3-fluoro-4-(2-methylpyridin-3-yl)phenoxy]furo[3,2-c]pyridine] | 746 nM | 25.2 |
| Cc1ncc(N)nc1-c1ccc(Oc2nccc3occc23)cc1F [Example 93, 6-[2-fluoro-4-(furo[3,2-c]pyridin-4-yloxy)phenyl]-5-methylpyrazin-2-amine] | 761 nM | 88 |

| Compound | EC50 (D1 [1]) | Ki (D1 [2]) [nM] |
| --- | --- | --- |
| COc1cc(Oc2nccc3occc23)ccc1-c1c(OC)ccc2cnccc12 [Example 94, 5-[4-(furo[3,2-c]pyridin-4-yloxy)-2-methoxyphenyl]-6-methoxyisoquinoline, formate salt] | 837 nM | 7.08 |
| Cc1cc(Oc2nccc3occc23)ccc1-c1c(C)ncnc1N1CCC1 [Example 95, 4-{4-[4-(azetidin-1-yl)-6-methylpyrimidin-5-yl]-3-methylphenoxy}furo[3,2-c]pyridine, formate salt] | 444 nM | 27.3 |
| Cc1cc(Oc2nccc3occc23)ccc1-c1c(C)ncnc1N1Cc2cn[nH]c2C1 [Example 96, 4-{4-[4-(4,6-dihydropyrrolo[3,4-c]pyrazol-5(1H)-yl)-6-methylpyrimidin-5-yl]-3-methylphenoxy}furo[3,2-c]pyridine, trifluoroacetate salt] | 306 nM | 24.5 |
| Cc1cc(Oc2nccc3occc23)ccc1-c1c(C)ncnc1N1CC(F)C1 [Example 97, 4-{4-[4-(3-fluoroazetidin-1-yl)-6-methylpyrimidin-5-yl]-3-methylphenoxy}furo[3,2-c]pyridine, formate salt] | 205 nM | 7.52 |
| Cc1cc(Oc2nccc3occc23)ccc1-c1c(C)ncnc1N1CCC(F)C1 (centres unmarked) [Example 98, 4-{4-[4-(3-fluoropyrrolidin-1-yl)-6-methylpyrimidin-5-yl]-3-methylphenoxy}furo[3,2-c]pyridine, trifluoroacetate salt] | 956 nM | 28.6 |
| Cc1ncnc(C)c1-c1ccc(Oc2nccc3occc23)c(C)c1C [Example 99, 4-[4-(4,6-dimethylpyrimidin-5-yl)-2,3-dimethylphenoxy]furo[3,2-c]pyridine] | 3040 nM and > 9950 nM | 1370 |
| Cc1ncc2nccn2c1-c1ccc(Oc2nccc3occc23)cc1C(F)(F)F [Example 100, 5-[4-(furo[3,2-c]pyridin-4-yloxy)-2-(trifluoromethyl)phenyl]-6-methylimidazo[1,2-a]pyrazine] | 112 nM and 580 nM | 11 |
| Cc1cc(-c2c(C)ncc3nccn23)c(C)cc1Oc1nccc2occc12 [Example 101, 5-[4-(furo[3,2-c]pyridin-4-yloxy)-2,5-dimethylphenyl]-6-methylimidazo[1,2-a]pyrazine] | 3450 nM | 431 |
| Cc1cc(Oc2nccc3occc23)ccc1-c1c(C)ncn1C [Example 102, 4-[4-(1,4-dimethyl-1H-imidazol-5-yl)-3-methylphenoxy]furo[3,2-c]pyridine] | 714 nM | 84.6 |
| Cc1cc(Oc2nccc3occc23)cc(C)c1-c1c(C)ncnc1C [Example 103, 4-[4-(4,6-dimethylpyrimidin-5-yl)-3,5-dimethylphenoxy]furo[3,2-c]pyridine] | 392 nM and 870 nM | 23.9 |
| Cc1cc(Oc2nccc3occc23)ccc1-c1c(C)cncc1C [Example 104, 4-[4-(3,5-dimethylpyridin-4-yl)-3-methylphenoxy]furo[3,2-c]pyridine] | 502 nM | 24.1 |
| COc1nc(C)c(-c2ccc(Oc3nccc4occc34)cc2C)n2ccnc12 [Example 107, 5-[4-(furo[3,2-c]pyridin-4-yloxy)-2-methylphenyl]-8-methoxy-6-methylimidazo[1,2-a]pyrazine] | 669 nM | 26.2 |
| Cc1ncnc(C)c1-c1ccc(Oc2nccc3occc23)cc1OCc1nc(C2CC2)no1 [Example 108, 4-{3-[(3-cyclopropyl-1,2,4-oxadiazol-5-yl)methoxy]-4-(4,6-dimethylpyrimidin-5-yl)phenoxy}furo[3,2-c]pyridine] | 673 nM | 55.5 |
| Cc1cc(Oc2nccc3occc23)ccc1-c1c(C)nc(C)c2nccn12 [Example 109, 5-[4-(furo[3,2-c]pyridin-4-yloxy)-2-methylphenyl]-6,8-dimethylimidazo[1,2-a]pyrazine] | 429 nM | 57.5 |
| Cc1cc(Oc2nccc3occc23)ccc1-c1c(C)cnc2nccn12 [Example 110, 5-[4-(furo[3,2-c]pyridin-4-yloxy)-2-methylphenyl]-6-methylimidazo[1,2-a]pyrimidine] | 33.8 nM | 2.89 |
| Cc1cc(Oc2nccc3occc23)ccc1-c1nc2nccn2cc1C [Example 111, 7-[4-(furo[3,2-c]pyridin-4-yloxy)-2-methylphenyl]-6-methylimidazo[1,2-a]pyrimidine] | 335 nM | 41.2 |
| Cc1cc(Oc2nccc3occc23)ccc1-c1c(C)nc(N)c2nccn12 [Example 112, 5-[4-(furo[3,2-c]pyridin-4-yloxy)-2-methylphenyl]-6-methylimidazo[1,2-a]pyrazin-8-amine] | 156 nM | 13.8 |
| COc1cc(Oc2nccc3occc23)ccc1-c1cc(N)cnc1C [Example 113, 5-[4-(furo[3,2-c]pyridin-4-yloxy)-2-methoxyphenyl]-6-methylpyridin-3-amine] | 1020 nM | 133 |
